From the supplement of paper PMC13380429

How the values were obtained:
Details in all cases: 72 h
[1] = system: HepG2; test: relative viability EC50 (midpoint between 100% and the lowest measured viability); higher = less toxic
[2] = system: Vero E6; test: as above
[3] = system: U2OS; test: as above
[4] = system: Calu-3; test: as above
[5] = system: Caco-2; test: cell viability relative to DMSO; higher = less toxic
[6] = system: HepG2; test: as above
[7] = system: Vero E6; test: as above
[8] = system: U2OS; test: as above
[9] = system: Calu-3; test: as above
[10] = system: Caco-2; test: drug sensitivity score (DSS) for viability; higher = more toxic; extreme values may be limits of the assay
[11] = system: HepG2; test: as above
[12] = system: Vero E6; test: as above
[13] = system: U2OS; test: as above
[14] = system: Calu-3; test: as above
[15] = system: Caco-2; test: relative viability EC50 (midpoint between 100% and the lowest measured viability); higher = less toxic

Compound | relative viability EC50 [1] [µM] | relative viability EC50 [2] [µM] | relative viability EC50 [3] [µM] | relative viability EC50 [4] [µM] | cell viability ([5]; 1 nM) [%] | cell viability ([5]; 10 nM) [%] | cell viability ([5]; 100 nM) [%] | cell viability ([5]; 1000 nM) [%] | cell viability ([5]; 10000 nM) [%] | cell viability ([6]; 1 nM) [%] | cell viability ([6]; 10 nM) [%] | cell viability ([6]; 100 nM) [%] | cell viability ([6]; 1000 nM) [%] | cell viability ([6]; 10000 nM) [%] | cell viability ([7]; 1 nM) [%] | cell viability ([7]; 10 nM) [%] | cell viability ([7]; 100 nM) [%] | cell viability ([7]; 1000 nM) [%] | cell viability ([7]; 10000 nM) [%] | cell viability ([8]; 1 nM) [%] | cell viability ([8]; 10 nM) [%] | cell viability ([8]; 100 nM) [%] | cell viability ([8]; 1000 nM) [%] | cell viability ([8]; 10000 nM) [%] | cell viability ([9]; 1 nM) [%] | cell viability ([9]; 10 nM) [%] | cell viability ([9]; 100 nM) [%] | cell viability ([9]; 1000 nM) [%] | cell viability ([9]; 10000 nM) [%] | drug sensitivity score [10] | drug sensitivity score [11] | drug sensitivity score [12] | drug sensitivity score [13] | drug sensitivity score [14] | relative viability EC50 [15] [µM]
CC(C)(O)C(=O)N1CCN(c2ccc(C(F)(F)F)c(C3=C(c4c[nH]c5ccccc45)C(=O)NC3=O)c2)CC1 | 3.57 | 3.46 | 3.35 | 4.17 | 92.7 | 95.5 | 95.7 | 105 | 51.1 | 101 | 96.5 | 103 | 107 | 7.5 | 102 | 97.7 | 96.9 | 104 | 29.5 | 99.6 | 95.8 | 103 | 102 | 35.6 | 102 | 93.2 | 106 | 117 | 46.2 | 2.2 | 4.6 | 3.6 | 3.3 | 2.1 | 
CCCCn1ccc(N2CCC(c3ccccc3)CC2)c(Cl)c1=O | > 10 | > 10 | > 10 | > 10 | 102 | 103 | 87.7 | 111 | 68.4 | 99.2 | 101 | 86.7 | 108 | 78.9 | 106 | 106 | 104 | 106 | 97.2 | 100 | 98.7 | 100 | 98.8 | 99 | 107 | 96.7 | 87 | 99.3 | 89.8 | 1 | 0.4 | 0 | 0 | 0 | 
CCc1ccc(/C=C2/SC(=S)NC2=O)cc1 | > 10 |  | > 10 | > 10 | 102 | 85.3 | 101 | 108 | 93.3 | 98.2 | 106 | 93.7 | 95.9 | 95.6 |  |  |  |  |  | 97.9 | 95.9 | 99.8 | 94.9 | 96.7 | 101 | 87 | 97.9 | 93.4 | 103 | 0 | 0 |  | 0 | 0 | > 10
CN(C)C1CCN(C(=O)c2ccc(NC(=O)Nc3ccc(-c4nc(N5CCOCC5)nc(N5CCOCC5)n4)cc3)cc2)CC1 | > 10 | > 10 | > 10 | 0.635 | 93.8 | 93.7 | 102 | 87.1 | 66.7 | 98.5 | 108 | 95.8 | 100 | 84.3 | 94.2 | 100 | 89.3 | 90.7 | 107 | 97.7 | 97.8 | 100 | 92.1 | 79.7 | 105 | 90.5 | 87.2 | 65.6 | 35.5 | 3.3 | 0.3 | 0 | 1.5 | 8.3 | 
COc1ccc(S(=O)(=O)N2CCCN(S(=O)(=O)c3ccc(OC)c(OC)c3)CC2)cc1OC | > 10 |  | > 10 | > 10 | 89.4 | 90.5 | 94.5 | 102 | 108 | 99.3 | 100 | 79.4 | 98.7 | 110 |  |  |  |  |  | 98.6 | 96.1 | 99.3 | 100 | 97 | 89.1 | 84.7 | 102 | 94.4 | 92.1 | 0 | 0 |  | 0 | 0 | > 10
Cn1c(=O)cnn(CCCCN2CCN(c3ncccn3)CC2)c1=O | > 10 |  | > 10 | > 10 |  |  |  |  |  | 111 | 114 | 95.2 | 116 | 106 |  |  |  |  |  | 103 | 97.1 | 103 | 97.8 | 103 | 111 | 91.3 | 102 | 120 | 103 |  | 0 |  | 0 | 0 | 
CC#C[C@@H](CC(=O)O)c1ccc(OCc2cccc(-c3ccc(C(F)(F)F)cc3)c2)cc1 [AMG-837] |  | > 10 | > 10 | > 10 | 102 | 95.3 | 97.7 | 94.9 | 93.2 |  |  |  |  |  | 97.5 | 100 | 95.8 | 102 | 97.4 | 101 | 94.7 | 99.9 | 95 | 93.9 | 104 | 104 | 110 | 92.7 | 94.9 | 0 |  | 0 | 0 | 0 | > 10
